In US11084822B2, “Salts and processes of preparing a PI3K inhibitor” (Incyte Corporation, priority 2015, dated 2021):

Molecular target: JAK2 (Homo sapiens (Human), UniProt O60674)
Assay: JAK2 versus JAK1 (Assay A at 1 mM ATP)
Format: biochemical
Conditions: ratio JAK2/JAK1, Assay A at 1 mM ATP

Chain of JAK2 (O60674 whole entry, species assumed): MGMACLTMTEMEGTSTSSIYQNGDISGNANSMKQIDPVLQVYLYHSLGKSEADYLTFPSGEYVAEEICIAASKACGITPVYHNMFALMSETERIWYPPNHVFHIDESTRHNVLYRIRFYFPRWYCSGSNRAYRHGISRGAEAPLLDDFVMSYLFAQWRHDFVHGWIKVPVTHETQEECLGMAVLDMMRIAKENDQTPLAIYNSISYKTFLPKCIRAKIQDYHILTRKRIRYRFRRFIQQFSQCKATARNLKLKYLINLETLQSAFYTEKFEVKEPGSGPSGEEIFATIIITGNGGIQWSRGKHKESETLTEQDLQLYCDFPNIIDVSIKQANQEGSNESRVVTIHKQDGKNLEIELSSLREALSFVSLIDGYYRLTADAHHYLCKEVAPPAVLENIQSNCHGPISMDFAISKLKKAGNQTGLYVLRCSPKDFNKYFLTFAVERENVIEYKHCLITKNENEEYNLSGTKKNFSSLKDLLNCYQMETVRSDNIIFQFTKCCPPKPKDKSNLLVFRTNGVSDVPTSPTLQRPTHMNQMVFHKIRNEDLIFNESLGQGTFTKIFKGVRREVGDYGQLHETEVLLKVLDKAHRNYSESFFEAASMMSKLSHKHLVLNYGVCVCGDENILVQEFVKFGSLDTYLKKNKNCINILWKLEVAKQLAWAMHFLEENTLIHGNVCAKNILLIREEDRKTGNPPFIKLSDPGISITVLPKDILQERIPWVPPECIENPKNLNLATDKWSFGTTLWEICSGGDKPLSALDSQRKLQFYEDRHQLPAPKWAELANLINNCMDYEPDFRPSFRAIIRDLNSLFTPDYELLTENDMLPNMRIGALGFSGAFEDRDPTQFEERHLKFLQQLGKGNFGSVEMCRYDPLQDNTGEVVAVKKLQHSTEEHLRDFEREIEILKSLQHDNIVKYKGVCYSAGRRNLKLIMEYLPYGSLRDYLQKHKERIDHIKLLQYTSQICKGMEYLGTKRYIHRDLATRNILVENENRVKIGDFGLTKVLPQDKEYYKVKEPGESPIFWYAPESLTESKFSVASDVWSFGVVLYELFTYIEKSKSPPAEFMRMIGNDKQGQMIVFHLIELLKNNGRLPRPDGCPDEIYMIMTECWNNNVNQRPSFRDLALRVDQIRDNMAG

Row | Compound | JAK2/JAK1
1 | N#CCC(C1CCN(c2cccc(Cl)n2)C1)n1cc(-c2ncnc3[nH]ccc23)cn1 (single isomer, unassigned) [Compound 3, 3-[1-(6-chloropyridin-2-yl)pyrrolidin-3-yl]-3-[4-(7H-pyrrolo[2,3-d]pyrimidin-4-yl)-1H-pyrazol-1-yl]propanenitrile] | >10
2 | N#CCC(C1CCN(c2nc3cccnc3o2)C1)n1cc(-c2ncnc3[nH]ccc23)cn1 (stereo not shown) [Compound 4, 3-(1-[1,3]oxazolo[5,4-b]pyridin-2-ylpyrrolidin-3-yl)-3-[4-(7H-pyrrolo[2,3-d]pyrimidin-4-yl)-1H-pyrazol-1-yl]propanenitrile] | >10
3 | N#CCC(CN1CCN(C(=O)c2ccc(C#N)cc2F)CC1)n1cc(-c2ncnc3[nH]ccc23)cn1 (stereo not shown) [Compound 5, 4-[(4-{3-cyano-2-[4-(7H-pyrrolo[2,3-d]pyrimidin-4-yl)-1H-pyrazol-1-yl]propyl}piperazin-1-yl)carbonyl]-3-fluorobenzonitrile] | >10
4 | N#CCC(CN1CCN(C(=O)c2ccc(C#N)cc2F)CC1)n1ccc(-c2ncnc3[nH]ccc23)c1 (stereo not shown) [Compound 6, 4-[(4-{3-cyano-2-[3-(7H-pyrrolo[2,3-d]pyrimidin-4-yl)-1H-pyrrol-1-yl]propyl}piperazin-1-yl)carbonyl]-3-fluorobenzonitrile] | >10
5 | N#CCC1(n2cc(-c3ncnc4[nH]ccc34)cn2)CN(C2CCN(C(=O)c3ccnc(C(F)(F)F)c3F)CC2)C1 [Compound 7, {1-{1-[3-Fluoro-2-(trifluoromethyl)isonicotinoyl]piperidin-4-yl}-3-[4-(7H-pyrrolo[2,3-d]pyrimidin-4-yl)-1H-pyrazol-1-yl]azetidin-3-yl}acetonitrile] | >10
6 | N#CCC1(n2cc(-c3ncnc4[nH]ccc34)cn2)CN(C2CCN(C(=O)Nc3ccc(F)cc3C(F)(F)F)CC2)C1 [Compound 8] | >10
7 | N#CCC1(n2cc(-c3ncnc4[nH]ccc34)cn2)CN(C2CCN(C(=O)c3ccnc(C(F)(F)F)n3)CC2)C1 [Compound 9, [3-[4-(7H-pyrrolo[2,3-d]pyrimidin-4-yl)-1H-pyrazol-1-yl]-1-(1-{[2-(trifluoromethyl)pyrimidin-4-yl]carbonyl}piperidin-4-yl)azetidin-3-yl]acetonitrile] | >10
8 | N#CC[C@]1(n2cc(-c3ncnc4[nH]ccc34)cn2)C[C@H](N2CCN(C(=O)c3ccnc(C(F)(F)F)n3)CC2)C1 [Compound 10, [trans-1-[4-(7H-pyrrolo[2,3-d]pyrimidin-4-yl)-1H-pyrazol-1-yl]-3-(4-{[2-(trifluoromethyl)pyrimidin-4-yl]carbonyl}piperazin-1-yl)cyclobutyl]acetonitrile] | >10
9 | C[C@H](NC(=O)c1cc(F)c(N2CC(CC#N)(n3cc(-c4ncnc5[nH]ccc45)cn3)C2)cc1F)C(F)(F)F [Compound 16, 4-{3-(cyanomethyl)-3-[4-(7H-pyrrolo[2,3-d]pyrimidin-4-yl)-1H-pyrazol-1-yl]azetidin-1-yl}-2,5-difluoro-N-[(1S)-2,2,2-trifluoro-1-methylethyl]benzamide] | >10
10 | C[C@@H](CO)NCc1cc(OC2CCN([C@H]3C[C@](CC#N)(n4cc(-c5ncnc6[nH]ccc56)cn4)C3)CC2)nc(C(F)(F)F)c1 [Compound 23, {trans-3-(4-{[4-({[(1S)-2-hydroxy-1-methylethyl]amino}methyl)-6-(trifluoromethyl)pyridin-2-yl]oxy}piperidin-1-yl)-1-[4-(7H-pyrrolo[2,3-d]pyrimidin-4-yl)-1H-pyrazol-1-yl]cyclobutyl}acetonitrile] | >10
11 | C[C@@H](O)CNCc1cc(OC2CCN([C@H]3C[C@](CC#N)(n4cc(-c5ncnc6[nH]ccc56)cn4)C3)CC2)nc(C(F)(F)F)c1 [Compound 24, {trans-3-(4-{[4-({[(2R)-2-hydroxypropyl]amino}methyl)-6-(trifluoromethyl)pyridin-2-yl]oxy}piperidin-1-yl)-1-[4-(7H-pyrrolo[2,3-d]pyrimidin-4-yl)-1H-pyrazol-1-yl]cyclobutyl}acetonitrile] | >10
12 | C[C@H](O)CNCc1cc(OC2CCN([C@H]3C[C@](CC#N)(n4cc(-c5ncnc6[nH]ccc56)cn4)C3)CC2)nc(C(F)(F)F)c1 [Compound 25, {trans-3-(4-{[4-({[(2S)-2-hydroxypropyl]amino}methyl)-6-(trifluoromethyl)pyridin-2-yl]oxy}piperidin-1-yl)-1-[4-(7H-pyrrolo[2,3-d]pyrimidin-4-yl)-1H-pyrazol-1-yl]cyclobutyl}acetonitrile] | >10
13 | N#CC[C@]1(n2cc(-c3ncnc4[nH]ccc34)cn2)C[C@H](N2CCC(Oc3cc(CCO)cc(C(F)(F)F)n3)CC2)C1 [Compound 26, {trans-3-(4-{[4-(2-hydroxyethyl)-6-(trifluoromethyl)pyridin-2-yl]oxy}piperidin-1-yl)-1-[4-(7H-pyrrolo[2,3-d]pyrimidin-4-yl)-1H-pyrazol-1-yl]cyclobutyl}acetonitrile] | >10

Further lines, results first:

Row | JAK2/JAK1 | Compound
14 | >10 | N#CC[C@]1(n2cc(-c3ncnc4[nH]ccc34)cn2)C[C@H](N2CCC(Oc3cc(CN4CC(O)C4)cc(C(F)(F)F)n3)CC2)C1 [Compound 11, {trans-3-(4-{[4-[(3-hydroxyazetidin-1-yl)methyl]-6-(trifluoromethyl)pyridin-2-yl]oxy}piperidin-1-yl)-1-[4-(7H-pyrrolo[2,3-d]pyrimidin-4-yl)-1H-pyrazol-1-yl]cyclobutyl}acetonitrile]
15 | >10 | N#CC[C@]1(n2cc(-c3ncnc4[nH]ccc34)cn2)C[C@H](N2CCC(Oc3cc(CN4CCC[C@H]4CO)cc(C(F)(F)F)n3)CC2)C1 [Compound 12, {trans-3-(4-{[4-{[(2S)-2-(hydroxymethyl)pyrrolidin-1-yl]methyl}-6-(trifluoromethyl)pyridin-2-yl]oxy}piperidin-1-yl)-1-[4-(7H-pyrrolo[2,3-d]pyrimidin-4-yl)-1H-pyrazol-1-yl]cyclobutyl}acetonitrile]
16 | >10 | N#CC[C@]1(n2cc(-c3ncnc4[nH]ccc34)cn2)C[C@H](N2CCC(Oc3cc(CN4CCC[C@@H]4CO)cc(C(F)(F)F)n3)CC2)C1 [Compound 13, {trans-3-(4-{[4-{[(2R)-2-(hydroxymethyl)pyrrolidin-1-yl]methyl}-6-(trifluoromethyl)pyridin-2-yl]oxy}piperidin-1-yl)-1-[4-(7H-pyrrolo[2,3-d]pyrimidin-4-yl)-1H-pyrazol-1-yl]cyclobutyl}acetonitrile]
17 | >10 | N#CCC1(n2cc(-c3ncnc4[nH]ccc34)cn2)CN([C@H]2CC[C@@H](Oc3cc(CCO)nc(C(F)(F)F)n3)CC2)C1 [Compound 18, {1-(cis-4-{[6-(2-hydroxyethyl)-2-(trifluoromethyl)pyrimidin-4-yl]oxy}cyclohexyl)-3-[4-(7H-pyrrolo[2,3-d]pyrimidin-4-yl)-1H-pyrazol-1-yl]azetidin-3-yl)acetonitrile]
18 | >10 | CCNCc1cc(O[C@H]2CC[C@@H](N3CC(CC#N)(n4cc(-c5ncnc6[nH]ccc56)cn4)C3)CC2)nc(C(F)(F)F)c1 [Compound 19, {1-(cis-4-{[4-[(ethylamino)methyl]-6-(trifluoromethyl)pyridin-2-yl]oxy}cyclohexyl)-3-[4-(7H-pyrrolo[2,3-d]pyrimidin-4-yl)-1H-pyrazol-1-yl]azetidin-3-yl}acetonitrile]
19 | >10 | CC(C)(O)c1cc(O[C@H]2CC[C@@H](N3CC(CC#N)(n4cc(-c5ncnc6[nH]ccc56)cn4)C3)CC2)nc(C(F)(F)F)c1 [Compound 20, {1-(cis-4-{[4-(1-hydroxy-1-methylethyl)-6-(trifluoromethyl)pyridin-2-yl]oxy}cyclohexyl)-3-[4-(7H-pyrrolo[2,3-d]pyrimidin-4-yl)-1H-pyrazol-1-yl]azetidin-3-yl}acetonitrile]
20 | >10 | N#CCC1(n2cc(-c3ncnc4[nH]ccc34)cn2)CN([C@H]2CC[C@@H](Oc3cc(CN4CC[C@@H](O)C4)cc(C(F)(F)F)n3)CC2)C1 [Compound 21, {1-(cis-4-{[4-{[(3R)-3-hydroxypyrrolidin-1-yl]methyl}-6-(trifluoromethyl)pyridin-2-yl]oxy}cyclohexyl)-3-[4-(7H-pyrrolo[2,3-d]pyrimidin-4-yl)-1H-pyrazol-1-yl]azetidin-3-yl}acetonitrile]
21 | >10 | N#CCC1(n2cc(-c3ncnc4[nH]ccc34)cn2)CN([C@H]2CC[C@@H](Oc3cc(CN4CC[C@H](O)C4)cc(C(F)(F)F)n3)CC2)C1 [Compound 22, {1-(cis-4-{[4-{[(3S)-3-hydroxypyrrolidin-1-yl]methyl}-6-(trifluoromethyl)pyridin-2-yl]oxy}cyclohexyl)-3-[4-(7H-pyrrolo[2,3-d]pyrimidin-4-yl)-1H-pyrazol-1-yl]azetidin-3-yl}acetonitrile]

Tested on: PI3K
Assay: PI3K inhibition according to at least one assay described herein
Format: biochemical
Conditions: not given

Row | Compound | PI3K inhibition
22 | CCOc1c([C@H](C)n2nc(C)c3c(N)ncnc32)cc(Cl)c(F)c1[C@@H]1CNC(=O)C1 [compound of Formula I, (R)-4-(3-((S)-1-(4-amino-3-methyl-1H-pyrazolo[3,4-d]pyrimidin-1-yl)ethyl)-5-chloro-2-ethoxy-6-fluorophenyl)pyrrolidin-2-one] | found to be PI3K inhibitors
